Experimental data taken from PMC8151276, “An Integrated Approach toward NanoBRET Tracers for Analysis of GPCR Ligand Engagement” (Molecules, 2021).

Legend:
[1] = biological target: T1, AVPR1B (Homo sapiens, UniProt P47901); experiment: NanoBRET screen HiBiT-AVPR1B in HEK293; format: binding
T1 construct: purchased Promega (in-house HiBiT-GPCR construct library, NanoBRET)
T1 sequence (P47901 1-424): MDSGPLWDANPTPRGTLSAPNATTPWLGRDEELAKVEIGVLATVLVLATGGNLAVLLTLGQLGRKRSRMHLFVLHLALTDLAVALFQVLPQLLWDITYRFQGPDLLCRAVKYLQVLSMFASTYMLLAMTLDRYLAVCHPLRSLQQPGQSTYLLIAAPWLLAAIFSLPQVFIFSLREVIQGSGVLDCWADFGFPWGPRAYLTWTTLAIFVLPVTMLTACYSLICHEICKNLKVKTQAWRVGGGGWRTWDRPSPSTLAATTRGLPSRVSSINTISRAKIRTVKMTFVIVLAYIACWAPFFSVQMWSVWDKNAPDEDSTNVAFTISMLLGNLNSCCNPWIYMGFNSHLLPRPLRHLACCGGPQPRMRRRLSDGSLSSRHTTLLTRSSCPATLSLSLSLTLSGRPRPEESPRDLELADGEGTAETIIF
Protocol: (§1) Each tracer candidate was screened across the entire library of HiBiT-GPCR constructs using NanoBRET as the detection modality. As depicted in Figure 4A, the specificity of interactions was evaluated through decrease in BRET due to competitive displacement of a bound tracer by excess parental compound. Each tracer was analyzed for binding to each HiBiT-GPCR fusion in the absence and in the presence of competing parental compound. Briefly, HEK293 cells were transfected with HiBiT-GPCR constructs diluted into promoterless DNA to reduce expression and maximize translocation to the cell surface. Each tracer candidate was then screened at concentrations of 1 μM and 0.1 μM across cells expressing these fusions. Cells were treated for 1.5 h with tracer either alone or in the presence of 20 μM competing parental compound (i.e., control). BRET was measured upon addition of purified LgBiT and subsequent complementation with HiBiT genetically fused to a GPCR. The specificity of interactions was assessed through a decrease in BRET signal due to competitive displacement of the bound tracer. To further gauge the robustness of these interactions, the fold response over the control (i.e., BRETtracer/BRETcontrol) was calculated. We chose a 1.5-fold response, which translates to ≥7-fold signal over noise as the minimal threshold required to score an interaction as positive. […]. Below we highlight the screening results obtained for our exemplary fluorescent tracers based on Clozapine, Amitriptyline and AZD1283.
(§2) HiBiT-GPCR DNA constructs were diluted in 10 mM Tris pH 8 to a final concentration of 0.01 μg/μL, arrayed in 96-well plates and stored at −20 °C. For transfection, HEK293 cells were suspended in Opti-MEM (without phenol red) supplemented with 2% fetal bovine serum (Seradigm) and 100 units/mL penicillin–streptomycin (Gibco) at a final concentration of 220,000 cells/mL and dispensed into white 96-well plates at 90 μL/well. Subsequent transfections and screens were carried using an Agilent Bravo Automated Liquid Handling Platform. First, the 96-well HiBiT DNA arrays were diluted 25-fold in Opti-MEM (without serum or phenol red) to a final concentration of 0.0004 μg/μL and 20 μL of the diluted DNAs were transferred into new 96-well plates. Next, promoterless carrier DNA (1 μg/μL) was diluted 25-fold (0.04 μg/μL) and then dispensed into the diluted arrays at 20 μL/well. Following brief mixing, Viafect transfection reagent (Promega) diluted 16-fold into Opti-MEM was dispensed into the plates at 40 μL/well. After mixing by pipetting, plates were incubated for 10 min on the pipetting station deck. The DNA-transfection reagent complexes were then added to plates containing cells. To facilitate the screen, 10 μL of DNA-transfection reagent complexes were added in duplicates to the top 4 and bottom 4 rows, resulting in two identical 48-well arrays per plate. Plates with transfected cells were incubated for 18–20 h at 37 °C/5% CO2. A screen of each tracer across the entire library using two different concentrations requires duplicate plates of transfected cells. Depending on the number of tracers being screened, transfections can be scaled up using the same ratios. The next day, for each tracer, four 20× screening solutions in tracer dilution buffer (Promega) were prepared: two duplicates at final concentration of 20 μM and two duplicates at a final concentration of 2 μM. A competing unmodified compound was added to one of each duplicate at a final concentration of 400 μM. The four resulting solutions were diluted 4-fold in Opti-MEM without serum or phenol red to generate 5× solutions (5 µM and 0.5 µM tracer +/− 100 μM competing compound). To screen the library, a BioTek MultiFlo FX liquid dispenser was used to dispense 22.5 µL of tracer solution to the top 4 rows and 22.5 µL tracer + competing compound solution to the 4 bottom rows. Plates were briefly mixed on an orbital shaker and incubated for 1.5 h at room temperature. […]

[2] = biological target: T2, RXFP4 (Homo sapiens, UniProt Q8TDU9); experiment: NanoBRET screen HiBiT-RXFP4 in HEK293; format: binding
T2 construct: purchased Promega (in-house HiBiT-GPCR construct library, NanoBRET)
T2 sequence (Q8TDU9 whole entry): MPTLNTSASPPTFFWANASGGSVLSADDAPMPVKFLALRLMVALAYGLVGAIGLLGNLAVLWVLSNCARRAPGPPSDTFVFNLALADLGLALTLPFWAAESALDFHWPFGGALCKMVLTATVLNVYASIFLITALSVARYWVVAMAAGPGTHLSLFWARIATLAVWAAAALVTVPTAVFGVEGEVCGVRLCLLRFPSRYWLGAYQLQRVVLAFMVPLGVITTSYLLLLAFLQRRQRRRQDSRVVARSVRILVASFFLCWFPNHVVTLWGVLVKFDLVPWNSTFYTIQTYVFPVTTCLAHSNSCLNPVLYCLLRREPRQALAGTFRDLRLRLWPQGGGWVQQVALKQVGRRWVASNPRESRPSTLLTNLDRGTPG
Protocol: as §1, §2

[3] = tracer at 0.1μM, listed as amitriptyline-b-2-NB590
[4] = tracer at 1μM, listed as amitriptyline-b-2-NB590

Structure (SMILES) | NanoBRET Fold Response ([1]; AVPR1B, tracer 0.1μM) | NanoBRET Fold Response ([1]; AVPR1B, tracer 1μM) | NanoBRET Fold Response ([2]; RXFP4, tracer 0.1μM) | NanoBRET Fold Response ([2]; RXFP4, tracer 1μM) | other results
O=C(CCc1ccc2n1[B-](F)(F)[N+]1=C(c3ccc[nH]3)C=CC1=C2)NCc1ccc(C(=O)NCCOCCC(=O)N[C@@H]2CC[C@@]3(O)[C@H]4Cc5ccc(O)c6c5[C@@]3(CCN4CC3CC3)[C@H]2O6)cc1 [Naltrexone-3-NB590] | 1.19 | 1.17 | 0.98 | 0.98 | 
CCCn1c(=O)c2[nH]c(-c3ccc(OCC(=O)NCCNC(=O)CCOCCNC(=O)c4ccc(CNC(=O)CCc5ccc6n5[B-](F)(F)[N+]5=C(c7ccc[nH]7)C=CC5=C6)cc4)cc3)nc2n(CCC)c1=O [XAC-3-NB590] | 0.90 | 1.21 | 1.00 | 0.96 | 
CC(C)N(CC[C@H](c1ccccc1)c1cc(CCNC(=O)c2ccc(CNC(=O)CCc3ccc4n3[B-](F)(F)[N+]3=C(c5ccc[nH]5)C=CC3=C4)cc2)ccc1O)C(C)C [Tolterodine-BZ-NB590] | 0.85 | 0.94 | 1.08 | 0.98 | 
COc1ccc2[nH]c(-c3ccc(CNC(=O)CCOCCOCCOCCOCCNC(=O)CCc4ccc5n4[B-](F)(F)[N+]4=C(c6ccc[nH]6)C=CC4=C5)cc3)c(CCNC(C)=O)c2n1 [AzomelatoninICO9-2-NB590] |  |  |  |  | NanoBRET Fold Response ([1]; 0.1μM tracer): 1.50; NanoBRET Fold Response ([1]; 1μM tracer): 0.90; NanoBRET Fold Response ([2]; 0.1μM tracer): 0.94; NanoBRET Fold Response ([2]; 1μM tracer): 0.96
CN1CCN(C2=Nc3cc(Cl)ccc3N(CC(=O)NCCOCCOCCOCCOCCNC(=O)CCc3ccc4n3[B-](F)(F)[N+]3=C(c5ccc[nH]5)C=CC3=C4)c3ccccc32)CC1 [Clozapine-c-2-NB590] |  |  |  |  | NanoBRET Fold Response ([1]; AVPR1B, 0.1μM tracer): 0.95; NanoBRET Fold Response ([1]; AVPR1B, 1μM tracer): 0.84; NanoBRET Fold Response ([2]; RXFP4, 0.1μM tracer): 0.96; NanoBRET Fold Response ([2]; RXFP4, 1μM tracer): 1.04
COc1ccccc1N1CCN(CCCCN2C(=O)c3ccc(CNC(=O)CCOCCNC(=O)c4ccc(CNC(=O)CCc5ccc6n5[B-](F)(F)[N+]5=C(c7ccc[nH]7)C=CC5=C6)cc4)cc3C2=O)CC1 [NAN-190-3-NB590] | 1.04 | 1.04 | 0.93 | 0.90 | 
Cc1nc2n(c(=O)c1CCN1CCC(c3noc4cc(F)ccc34)CC1)CCCC2OC(=O)NCCOCCOCCOCCOCCNC(=O)CCc1ccc2n1[B-](F)(F)[N+]1=C(c3ccc[nH]3)C=CC1=C2 (stereo not drawn) [Risperidone-2-NB590] | 1.06 | 0.98 | 0.96 | 1.10 | 
O=C(CCOCCOCCOCCOCCNC(=O)CCc1ccc2n1[B-](F)(F)[N+]1=C(c3ccc[nH]3)C=CC1=C2)NCCCN1CCN(C2=Nc3ccccc3Oc3ccc(Cl)cc32)CC1 [Loxapine-a-2-NB590] | 1.06 | 0.96 | 1.01 | 1.21 | 
COc1ccccc1N1CCN(CCCCN2C(=O)c3ccc(CNC(=O)CCOCCOCCOCCOCCNC(=O)CCc4ccc5n4[B-](F)(F)[N+]4=C(c6ccc[nH]6)C=CC4=C5)cc3C2=O)CC1 [NAN-190-2-NB590] |  |  |  | 0.97 | 
CC(C)N(CC[C@H](c1ccccc1)c1cc(CCNC(=O)CCOCCOCCOCCOCCNC(=O)CCc2ccc3n2[B-](F)(F)[N+]2=C(c4ccc[nH]4)C=CC2=C3)ccc1O)C(C)C [Tolterodine-2-NB590] | 1.42 | 0.97 | 0.96 | 1.06 | 
N#CN=C(NCCCOc1cccc(CN2CCCCC2)c1)NCCNC(=O)CCOCCOCCOCCOCCNC(=O)CCc1ccc2n1[B-](F)(F)[N+]1=C(c3ccc[nH]3)C=CC1=C2 [Aminopotentidine-2-NB590] | 1.09 | 1.04 | 1.02 | 1.02 | 
CCOC(=O)c1cc(C#N)c(N2CCC(C(=O)NS(=O)(=O)Cc3ccccc3/C=C/C(=O)NCCNC(=O)CCc3ccc4n3[B-](F)(F)[N+]3=C(c5ccc[nH]5)C=CC3=C4)CC2)nc1C [AZD1283-1-NB590] |  |  |  |  | NanoBRET Fold Response ([1]; AVPR1B, 0.1μM): 0.97; NanoBRET Fold Response ([1]; AVPR1B, 1μM): 1.05; NanoBRET Fold Response ([2]; RXFP4, 0.1μM): 1.02; NanoBRET Fold Response ([2]; RXFP4, 1μM): 1.09
CN(C)CCC=C1c2ccccc2CCc2ccc(C(=O)NCCNC(=O)CCOCCOCCOCCOCCNC(=O)CCc3ccc4n3[B-](F)(F)[N+]3=C(c5ccc[nH]5)C=CC3=C4)cc21 [Amitriptyline-b-2-NB590] |  |  |  |  | NanoBRET Fold Response [1, 3]: 0.84; NanoBRET Fold Response [1, 4]: 1.18; NanoBRET Fold Response [2, 3]: 1.07; NanoBRET Fold Response [2, 4]: 0.89
CN(C)CCC=C1c2ccccc2CCc2ccc(C(=O)NCCNC(=O)CCOCCOCCOCCOCCNC(=O)CCc3ccc4n3[B-](F)(F)[N+]3=C(c5ccc[nH]5)C=CC3=C4)cc21 [Amitriptyline-a-2-NB590] |  |  |  |  | NanoBRET Fold Response ([1]; tracer at 0.1μM): 0.94; NanoBRET Fold Response ([1]; tracer at 1μM): 1.03; NanoBRET Fold Response ([2]; tracer at 0.1μM): 1.05; NanoBRET Fold Response ([2]; tracer at 1μM): 1.03
O=C(CCc1ccc2n1[B-](F)(F)[N+]1=C(c3ccc[nH]3)C=CC1=C2)NCCOCCOCCNC(=O)OCCOCCN1CCN(C2=Nc3ccccc3Sc3ccccc32)CC1 [Quetiapine-a-2-NB590] | 0.86 | 1.01 | 1.02 | 0.68 | 
Cc1cc2c(s1)Nc1ccccc1N=C2N1CCN(CCCNC(=O)CCOCCOCCOCCOCCNC(=O)CCc2ccc3n2[B-](F)(F)[N+]2=C(c4ccc[nH]4)C=CC2=C3)CC1 [Olanzapine-a-2-NB590] | 1.03 | 1.17 | 0.95 | 0.91 | 
CN1CCN(C2=Nc3cc(Cl)ccc3Nc3ccc(CNC(=O)CCOCCOCCOCCOCCNC(=O)CCc4ccc5n4[B-](F)(F)[N+]4=C(c6ccc[nH]6)C=CC4=C5)cc32)CC1 [Clozapine-b-2-NB590] |  |  |  |  | NanoBRET Fold Response ([1]; AVPR1B, 0.1μM tracer): 0.98; NanoBRET Fold Response ([2]; RXFP4, 0.1μM tracer): 0.97; NanoBRET Fold Response ([2]; RXFP4, 1μM tracer): 1.01
COc1ccc2c(n1)c(CCNC(C)=O)cn2CCNC(=O)CCc1ccc2n1[B-](F)(F)[N+]1=C(c3ccc[nH]3)C=CC1=C2 [Azamelatonin-1-NB590] |  |  |  |  | NanoBRET Fold Response ([1]; 0.1μM tracer): 0.90; NanoBRET Fold Response ([1]; 1μM tracer): 1.00; NanoBRET Fold Response ([2]; 0.1μM tracer): 0.73; NanoBRET Fold Response ([2]; 1μM tracer): 1.04
CN(CCC=C1c2ccccc2CCc2ccccc21)C(=O)CCOCCOCCOCCOCCNC(=O)CCc1ccc2n1[B-](F)(F)[N+]1=C(c3ccc[nH]3)C=CC1=C2 [Amitriptyline-e-2-NB590] |  |  |  |  | NanoBRET Fold Response ([1]; tracer at 1μM): 1.01
